According to ChEMBL document CHEMBL3045433, “Induction of Resistance against Rice Bacterial Leaf Blight by 3-Chloro-1-methyl-1H-pyrazole-5-carboxylic Acid” (2005):
The source made the active and inactive calls. The rule behind the calls is not given here.

Key:
Oryza sativa [1] = experiment: Induction of PBZ1 gene expression in three-leaf stage of Oryza sativa (rice) plant leaf after 5 days by Northern blot analysis; type: functional, organism-based
Oryza sativa [2] = experiment: Induction of disease resistant in three-leaf stage of Oryza sativa (rice) plant against Xanthomonas oryzae pv. oryzae-induced leaf blight at 0.05 to 5 mg/pot after 7 days; type: functional, organism-based
Oryza sativa [3] = experiment: Induction of disease resistant in three-leaf stage of Oryza sativa (rice) plant against Xanthomonas oryzae pv. oryzae-induced leaf blight at 0.05 to 0.5 mg/pot after 7 days; type: functional, organism-based
Oryza sativa [4] = experiment: Induction of disease resistant in three-leaf stage of Oryza sativa (rice) plant against Xanthomonas oryzae pv. oryzae-induced leaf blight at 5 mg/pot after 7 days; type: functional
[5] = system: Xanthomonas oryzae pv. oryzae; experiment: Antibacterial activity against Xanthomonas oryzae pv. oryzae up to 1 mg/ml after 48 hr; type: functional, organism-based
Oryza sativa [6] = experiment: Induction of disease resistant in three-leaf stage of Oryza sativa (rice) plant against Xanthomonas oryzae pv. oryzae-induced leaf blight after 7 days; type: functional, organism-based

With `C=CCOC1=NS(=O)(=O)c2ccccc21` the Activity (Oryza sativa [1]) was “Dose-dependent effect” and the Activity (Oryza sativa [2]) was “Active”.

`CSC(=O)c1cccc2nnsc12` was tested, and the Activity (Oryza sativa [1]) was “Dose-dependent effect” and the Activity (Oryza sativa [2]) was “Active”.

With `N#CCNC(=O)c1ccnc(Cl)c1` the Activity (Oryza sativa [1]) was “Dose-dependent effect”.

`Cn1nc(Cl)cc1C(=O)O` [3-CHLORO-1-METHYL-1H-PYRAZOLE-5-CARBOXYLIC ACID] was tested, and the Activity (Oryza sativa [1]) was “Dose-dependent effect”, the Activity (Oryza sativa [3]) was “Active” and the Activity (Oryza sativa [4]) was 99.5%. The Activity [5] was “inactive” and the Activity (Oryza sativa [6]) was “Dose-dependent effect”.
